Legend:
[1] = biological target: T1, human MAO-B (Homo sapiens, UniProt P27338); test: Amplex Red monoamine oxidase assay, MAO-B; type: biochemical; conditions: human recombinant MAO-B; read-out: MAO-B IC50 ± SEM
T1 construct: purchased Sigma Aldrich M7441
T1 sequence (P27338 1-520): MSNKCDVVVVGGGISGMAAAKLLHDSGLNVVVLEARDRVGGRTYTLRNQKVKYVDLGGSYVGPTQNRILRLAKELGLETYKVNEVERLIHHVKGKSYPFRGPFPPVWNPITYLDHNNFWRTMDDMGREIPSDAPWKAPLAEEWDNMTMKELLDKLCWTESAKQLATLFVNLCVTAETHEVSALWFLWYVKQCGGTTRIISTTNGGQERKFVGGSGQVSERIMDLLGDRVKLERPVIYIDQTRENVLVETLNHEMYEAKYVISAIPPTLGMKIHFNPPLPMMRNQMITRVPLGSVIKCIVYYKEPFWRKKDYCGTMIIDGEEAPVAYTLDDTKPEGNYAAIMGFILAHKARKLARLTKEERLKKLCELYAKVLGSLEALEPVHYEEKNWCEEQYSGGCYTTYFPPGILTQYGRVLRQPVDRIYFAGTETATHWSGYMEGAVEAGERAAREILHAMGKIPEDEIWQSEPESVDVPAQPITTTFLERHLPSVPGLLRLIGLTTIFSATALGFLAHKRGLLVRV
Description: Inhibition activity of compounds at MAO enzyme isoforms was measured via a fluorometric method using the Amplex Red Monoamine Oxidase Assay (ThermoFisher Scientific, Waltham, MA, USA #A12214) in a 96-well plates. Human recombinant MAO-B and MAO-A enzymes (Sigma Aldrich, St. Louis, MO, USA #M7441 and #M7316) were used.

[2] = biological target: T2, rat A2A (rA2A) ARs (Rattus norvegicus, UniProt P30543); test: Radioligand binding [3H]MSX-2, rat brain striatal membranes; conditions: read-out: rA2A [3H]MSX-2 Ki ± SEM
T2 construct: rat brain striatal membrane preparations for A2A AR assays; tissue Pel Freez; host or cells: rat brain striatum membranes
Description: (§1) The final compounds were tested in radioligand binding assays to evaluate their affinity for all four ARs subtypes (see Table 2). Rat brain cortical membrane preparations were used as a source of rat A1 (rA1) ARs, and rat brain striatal membrane preparations served as a source of rat A2A (rA2A) ARs. For A2B- and A3AR assays, membrane preparations of Chinese hamster ovary (CHO) cells recombinantly expressing either human A2B (hA2B) or human A3 (hA3) ARs were employed.
(§2) Adenosine receptor radioligand binding assays were performed as previously described using rat brain cortical membrane preparations for A1 and rat brain striatal membrane preparations for A2A AR assays. Frozen rat brains (unstripped) were obtained from Pel Freez, Rogers, AR, USA. For assays at human AR subtypes, cell membranes of CHO cells recombinantly expressing the respective receptor were used. The following compounds were employed as radioligands: A1: [^3H]2-chloro-N^6-cyclopentyladenosine ([^3H]CCPA); A2A: [^3H]3-(3-hydroxypropyl)-7-methyl-8-(m-methoxystyryl)-1-propargylxanthine ([^3H]MSX-2); A2B: [^3H]8-(4-(4-(4-chlorophenyl)piperazine-1-sulfonyl)phenyl)-1-propylxanthine ([^3H]PSB-603); A3: [^3H]phenyl-8-ethyl-4-methyl-(8R)-4,5,7,8-tetrahydro-1H-imidazo[2,1-i]purine-5-one ([^3H]PSB-11). Initially, a single high concentration of compound was tested (1 µM). For potent compounds, full concentration–inhibition curves were determined using six to ten different concentrations of test compound spanning three orders of magnitude. At least three independent experiments were performed. Data were analyzed using GraphPad PRISM program version 4.0 or higher (Graph Pad, San Diego, CA, USA).

[3] = biological target: T3, human A2B (hA2B) ARs (Homo sapiens, UniProt P29275); test: Radioligand binding [3H]PSB-603, CHO cell membranes; conditions: for Ki: CHO cell membranes, read-out: hA2B [3H]PSB-603 Ki ± SEM; for inhibition at 1 µM: read-out: hA2B [3H]PSB-603 % inhibition ± SEM at 1 µM
T3 construct: expressed in transfected cells; host or cells: CHO cells (membranes)
T3 sequence (P29275 1-332): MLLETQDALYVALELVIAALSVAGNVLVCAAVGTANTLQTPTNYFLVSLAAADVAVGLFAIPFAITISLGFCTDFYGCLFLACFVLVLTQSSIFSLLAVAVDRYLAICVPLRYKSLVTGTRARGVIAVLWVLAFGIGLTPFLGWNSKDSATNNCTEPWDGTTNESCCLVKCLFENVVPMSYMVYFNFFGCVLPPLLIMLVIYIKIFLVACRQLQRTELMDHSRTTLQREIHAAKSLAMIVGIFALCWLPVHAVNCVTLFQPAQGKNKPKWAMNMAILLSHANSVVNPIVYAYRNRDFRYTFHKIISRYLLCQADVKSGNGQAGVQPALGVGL
Description: as §1, §2

[4] = biological target: T4, human PDE4B1 (Homo sapiens, UniProt Q07343); test: PDElight HTS cAMP phosphodiesterase assay, PDE4B1; type: biochemical; conditions: for IC50: read-out: PDE 4B1 IC50 ± SEM; for inhibition at 10 µM: read-out: PDE 4B1 % Inhibition ± SEM at 10 µM
T4 construct: purchased BPS Biosciences
Description: (§3) Further biological evaluation of the presented compound library was performed determining inhibitory potencies against selected human PDE isoforms, namely, PDE4 and PDE10 (for results see Table 3).
(§4) Tested and reference compounds were dissolved in dimethyl sulfoxide (DMSO) at a concentration of 10 mM and further diluted in assay buffer (10 mM Tris-HCl, 10 mM magnesium chloride and 0.05% Tween-20; pH 7.4). Inhibition of human PDE10A and 4B1 was measured using PDElight HTS cAMP phosphodiesterase assay kit (Lonza, Basel, Switzerland) according to manufacturer’s recommendations. Then, 10 ng of PDE10A and 5 ng of PDE4B1 (BPS Biosciences, San Diego, CA, USA) in appropriate buffer was incubated with reference and tested compound for 20 min. […] Then PDELight AMP Detection Reagent was added and incubated 10 min. All reactions were carried out at 37 °C in 96 white-walled, half-area-well plates (PerkinElmer). Luminescence was measured in a multifunction plate reader (POLARstar Omega, BMG Labtech, Ortenberg, Germany). The percentage of inhibition and IC50s were computed using GraphPad Prism Version 6.0 software.

[5] = biological target: T5, human PDE10A1 (Homo sapiens, UniProt Q9Y233); test: PDElight HTS cAMP phosphodiesterase assay, PDE10A1; type: biochemical; conditions: for IC50: read-out: PDE 10A1 IC50 ± SEM; for inhibition at 10 µM: read-out: PDE 10A1 % Inhibition ± SEM at 10 µM
T5 construct: purchased BPS Biosciences
Description: as §3, §4

T2 sequence (P30543 whole entry): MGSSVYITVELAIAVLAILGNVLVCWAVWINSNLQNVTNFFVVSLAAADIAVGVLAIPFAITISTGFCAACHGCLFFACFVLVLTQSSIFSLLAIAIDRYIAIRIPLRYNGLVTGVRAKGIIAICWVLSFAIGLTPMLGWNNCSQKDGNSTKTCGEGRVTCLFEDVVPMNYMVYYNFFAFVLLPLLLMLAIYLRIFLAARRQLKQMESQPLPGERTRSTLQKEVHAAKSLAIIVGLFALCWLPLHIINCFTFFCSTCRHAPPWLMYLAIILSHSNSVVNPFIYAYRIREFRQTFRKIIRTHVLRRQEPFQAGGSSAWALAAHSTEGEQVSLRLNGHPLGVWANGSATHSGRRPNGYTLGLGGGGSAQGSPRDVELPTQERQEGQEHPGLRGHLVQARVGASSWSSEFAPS
T5 sequence (Q9Y233 1-779 isoform Q9Y233-1): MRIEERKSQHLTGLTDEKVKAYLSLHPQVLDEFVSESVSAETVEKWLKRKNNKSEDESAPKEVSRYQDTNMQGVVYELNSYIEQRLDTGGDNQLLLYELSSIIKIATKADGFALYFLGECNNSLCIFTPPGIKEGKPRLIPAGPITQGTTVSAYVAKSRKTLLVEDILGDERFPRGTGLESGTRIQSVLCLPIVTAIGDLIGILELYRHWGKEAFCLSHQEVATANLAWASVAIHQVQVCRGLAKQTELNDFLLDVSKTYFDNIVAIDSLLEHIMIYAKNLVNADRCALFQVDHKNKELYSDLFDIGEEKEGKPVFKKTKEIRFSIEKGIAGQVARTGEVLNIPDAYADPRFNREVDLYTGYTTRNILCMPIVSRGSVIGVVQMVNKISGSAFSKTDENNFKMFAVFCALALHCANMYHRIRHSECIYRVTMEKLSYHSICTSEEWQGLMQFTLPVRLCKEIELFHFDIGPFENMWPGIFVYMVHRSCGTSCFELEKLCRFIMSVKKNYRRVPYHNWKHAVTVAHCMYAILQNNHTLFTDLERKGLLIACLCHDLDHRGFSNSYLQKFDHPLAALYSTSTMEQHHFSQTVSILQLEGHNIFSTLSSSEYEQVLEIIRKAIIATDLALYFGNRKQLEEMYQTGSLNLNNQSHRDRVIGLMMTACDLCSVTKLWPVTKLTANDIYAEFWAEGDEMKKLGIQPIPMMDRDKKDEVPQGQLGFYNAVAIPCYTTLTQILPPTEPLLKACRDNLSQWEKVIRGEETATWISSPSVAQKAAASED
T4 sequence (Q07343 whole entry): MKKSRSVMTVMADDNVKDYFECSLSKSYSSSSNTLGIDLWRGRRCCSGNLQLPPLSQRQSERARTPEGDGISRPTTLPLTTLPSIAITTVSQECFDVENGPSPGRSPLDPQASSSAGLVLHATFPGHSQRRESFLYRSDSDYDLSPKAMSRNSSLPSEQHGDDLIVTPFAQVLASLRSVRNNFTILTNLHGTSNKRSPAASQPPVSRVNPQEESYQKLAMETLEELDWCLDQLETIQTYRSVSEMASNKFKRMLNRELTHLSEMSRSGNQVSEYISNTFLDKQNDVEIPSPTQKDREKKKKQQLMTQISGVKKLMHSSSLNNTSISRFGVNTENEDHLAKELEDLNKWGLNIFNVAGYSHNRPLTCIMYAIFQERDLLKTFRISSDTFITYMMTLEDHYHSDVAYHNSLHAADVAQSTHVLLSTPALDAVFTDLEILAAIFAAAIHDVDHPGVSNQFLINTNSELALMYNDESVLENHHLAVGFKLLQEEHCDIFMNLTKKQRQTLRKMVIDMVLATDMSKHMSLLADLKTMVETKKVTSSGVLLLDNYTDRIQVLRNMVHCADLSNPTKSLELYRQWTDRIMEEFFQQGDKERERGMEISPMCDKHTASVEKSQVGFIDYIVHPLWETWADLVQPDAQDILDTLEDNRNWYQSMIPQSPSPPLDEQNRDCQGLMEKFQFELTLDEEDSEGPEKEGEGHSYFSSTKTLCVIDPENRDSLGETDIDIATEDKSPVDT

Compound: CCCn1c(=O)c2c(nc3n2CCCN3CCc2ccc(O)c(O)c2)n(CCC)c1=O [Compound 21, 9-(3,4-Dihydroxyphenethyl)-1,3-dipropyl-6,7,8,9-tetrahydropyrimido[2,1-f]purine-2,4(1H,3H)-dione]
- IC50 [1]: 157 ± 39 nM
- Ki [2]: 274 ± 81 nM
- Ki [3]: 371 ± 23 nM
- IC50 [4]: 16500 ± 320 nM
- IC50 [5]: 31000 ± 100 nM

Compound: CCC(C)n1c(NCCc2ccc(O)c(O)c2)nc2c1c(=O)n(C)c(=O)n2C (centres unmarked) [Compound 11g, 7-(Sec-butyl)-8-((3,4-dihydroxyphenethyl)amino)-1,3-dimethyl-3,7-dihydro-1H-purine-2,6-dione]
- IC50 [1]: 197 ± 57 nM
- Ki [2]: 8980 ± 150 nM
- Ki [3]: > 1000 nM
- inhibition at 1 µM [3]: -5%
- IC50 [4]: 4410 ± 230 nM
- IC50 [5]: 10200 ± 900 nM

Compound: CCCCn1c(=O)c2c(nc3n2CCCN3CCc2ccc(O)c(O)c2)n(CCCC)c1=O [Compound 22, 1,3-Dibutyl-9-(3,4-dihydroxyphenethyl)-6,7,8,9-tetrahydropyrimido[2,1-f]purine-2,4(1H,3H)-dione]
- IC50 [1]: 170 ± 30 nM
- Ki [2]: 334 ± 52 nM
- Ki [3]: 175 ± 21 nM
- inhibition at 10 µM [4]: 24%
- IC50 [4]: > 10000 nM
- inhibition at 10 µM [5]: 25%
- IC50 [5]: > 10000 nM

Compound: CCCCCCn1c(NCCc2ccc(O)c(O)c2)nc2c1c(=O)n(C)c(=O)n2C [Compound 11i, 8-((3,4-Dihydroxyphenethyl)amino)-7-hexyl-1,3-dimethyl-3,7-dihydro-1H-purine-2,6-dione]
- IC50 [1]: 76.4 ± 0.7 nM
- Ki [2]: > 10000 nM
- Ki [3]: > 1000 nM
- inhibition at 1 µM [3]: 31%
- inhibition at 10 µM [4]: 42%
- IC50 [4]: > 10000 nM
- inhibition at 10 µM [5]: 14%
- IC50 [5]: > 10000 nM

Compound: Cn1c(=O)c2c(nc(NCCc3ccc(O)c(O)c3)n2CCOc2ccccc2)n(C)c1=O [Compound 11l, 8-((3,4-Dihydroxyphenethyl)amino)-1,3-dimethyl-7-(2-phenoxyethyl)-3,7-dihydro-1H-purine-2,6-dione]
- IC50 [1]: 53.5 ± 18.2 nM
- Ki [2]: 1380 ± 120 nM
- Ki [3]: > 1000 nM
- inhibition at 1 µM [3]: 22%
- inhibition at 10 µM [4]: 20%
- IC50 [4]: > 10000 nM
- inhibition at 10 µM [5]: 17%
- IC50 [5]: > 10000 nM

Compound: CC(C)n1c(NCCc2ccc(O)c(O)c2)nc2c1c(=O)n(C)c(=O)n2C [Compound 11d, 8-((3,4-Dihydroxyphenethyl)amino)-7-isopropyl-1,3-dimethyl-3,7-dihydro-1H-purine-2,6-dione]
- IC50 [1]: 126 ± 49 nM
- Ki [2]: 1150 ± 140 nM
- Ki [3]: > 1000 nM
- inhibition at 1 µM [3]: 13%
- IC50 [4]: 2440 ± 800 nM
- IC50 [5]: 2300 ± 640 nM

Compound: CCn1c(NCCc2ccc(O)c(O)c2)nc2c1c(=O)n(C)c(=O)n2C [Compound 11b, 8-((3,4-Dihydroxyphenethyl)amino)-7-ethyl-1,3-dimethyl-3,7-dihydro-1H-purine-2,6-dione]
- IC50 [1]: 47.9 ± 8.4 nM
- Ki [2]: 672 ± 83 nM
- Ki [3]: > 1000 nM
- inhibition at 1 µM [3]: -2%
- IC50 [4]: 2520 ± 140 nM
- IC50 [5]: 4630 ± 1250 nM

Compound: CCCn1c(=O)c2c(nc(NCCc3ccc(O)c(O)c3)n2CCC)n(CCC)c1=O [Compound 12, 8-((3,4-Dihydroxyphenethyl)amino)-1,3,7-tripropyl-3,7-dihydro-1H-purine-2,6-dione]
- IC50 [1]: 105 ± 23 nM
- Ki [2]: 833 ± 81 nM
- Ki [3]: > 1000 nM
- inhibition at 1 µM [3]: 34%
- IC50 [4]: 14500 ± 480 nM
- IC50 [5]: 2730 ± 30 nM

Compound: CCCCCn1c(NCCc2ccc(O)c(O)c2)nc2c1c(=O)n(C)c(=O)n2C [Compound 11h, 8-((3,4-Dihydroxyphenethyl)amino)-1,3-dimethyl-7-pentyl-3,7-dihydro-1H-purine-2,6-dione]
- IC50 [1]: 58.3 ± 6.2 nM
- Ki [2]: 2220 ± 260 nM
- Ki [3]: > 1000 nM
- inhibition at 1 µM [3]: 12%
- IC50 [4]: 4430 ± 250 nM
- inhibition at 10 µM [5]: 51%
- IC50 [5]: ≥ 10000 nM

Compound: CCCn1c(NCCc2ccc(O)c(O)c2)nc2c1c(=O)n(C)c(=O)n2C [Compound 11c, 8-((3,4-Dihydroxyphenethyl)amino)-1,3-dimethyl-7-propyl-3,7-dihydro-1H-purine-2,6-dione]
- IC50 [1]: 165 ± 30 nM
- Ki [2]: 4720 ± 930 nM
- Ki [3]: > 1000 nM
- inhibition at 1 µM [3]: 6%
- IC50 [4]: 3320 ± 800 nM
- IC50 [5]: 3450 ± 270 nM

Compound: Cn1c(=O)c2c(nc(NCCc3ccc(O)c(O)c3)n2CCc2ccccc2)n(C)c1=O [Compound 11k, 8-((3,4-Dihydroxyphenethyl)amino)-1,3-dimethyl-7-phenethyl-3,7-dihydro-1H-purine-2,6-dione]
- IC50 [1]: 73.5 ± 7.5 nM
- Ki [2]: ≥ 10000 nM
- Ki [3]: > 1000 nM
- inhibition at 1 µM [3]: -9%
- IC50 [4]: 4400 ± 540 nM
- IC50 [5]: 2410 ± 70 nM

Compound: CCCCn1c(NCCc2ccc(O)c(O)c2)nc2c1c(=O)n(C)c(=O)n2C [Compound 11e, 7-Butyl-8-((3,4-dihydroxyphenethyl)amino)-1,3-dimethyl-3,7-dihydro-1H-purine-2,6-dione]
- IC50 [1]: 43.8 ± 16.2 nM
- Ki [2]: 1700 ± 260 nM
- Ki [3]: > 1000 nM
- inhibition at 1 µM [3]: 14%
- IC50 [4]: 3160 ± 530 nM
- IC50 [5]: 3770 ± 1290 nM

Compound: Cn1c(=O)c2c(nc(NCCc3ccc(O)c(O)c3)n2Cc2ccccc2)n(C)c1=O [Compound 11j, 7-Benzyl-8-((3,4-dihydroxyphenethyl)amino)-1,3-dimethyl-3,7-dihydro-1H-purine-2,6-dione]
- IC50 [1]: 45.6 ± 12.9 nM
- Ki [2]: 3600 ± 290 nM
- Ki [3]: > 1000 nM
- inhibition at 1 µM [3]: 31%
- IC50 [4]: 3290 ± 540 nM
- inhibition at 10 µM [5]: 36%
- IC50 [5]: ≥ 10000 nM

Compound: Cn1c(=O)c2c(nc3n2CCCN3CCc2ccc(O)c(O)c2)n(C)c1=O [Compound 20a, 9-(3,4-Dihydroxyphenethyl)-1,3-dimethyl-6,7,8,9-tetrahydropyrimido[2,1-f]purine-2,4(1H,3H)-dione]
- IC50 [1]: 121 ± 23 nM
- Ki [2]: 507 ± 109 nM
- Ki [3]: > 1000 nM
- inhibition at 1 µM [3]: 13%
- inhibition at 10 µM [4]: 44%
- IC50 [4]: > 10000 nM
- inhibition at 10 µM [5]: 35%
- IC50 [5]: > 10000 nM

Compound: CC(C)Cn1c(NCCc2ccc(O)c(O)c2)nc2c1c(=O)n(C)c(=O)n2C [Compound 11f, 8-((3,4-Dihydroxyphenethyl)amino)-7-isobutyl-1,3-dimethyl-3,7-dihydro-1H-purine-2,6-dione]
- IC50 [1]: 205 ± 23 nM
- Ki [2]: 6860 ± 770 nM
- Ki [3]: > 1000 nM
- inhibition at 1 µM [3]: 1%
- IC50 [4]: 3760 ± 160 nM
- inhibition at 10 µM [5]: 59%

Reference: PMC10377586 (Biomolecules, 2023)
